Reference: patent publication US10508109B2 (priority 2015, dated 2019)
Structures can show the parent of a compound that is named as a salt. Where two headings read alike, the source gives them in different places.

Columns and labels:
[1] = test system: A549; test: Cell-based assay, anti-proliferative activity (Cell Counting Kit-8, 72 hours); details: Homo sapiens, read-out: A549 IC50
Method in brief: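 Seed cells in 96-well format; add inhibitors; measure growth by CCK-8 at end of exposure; derive IC50.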

[2] = molecular target: SUV39H2 (Homo sapiens (Human), UniProt Q9H5I1); test: biochemical; assay type: biochemical; details: 3H-SAM 100 nM, H3 Histone Peptide 350 nM, room temperature 3 hours
Chain of SUV39H2 (Q9H5I1 whole entry): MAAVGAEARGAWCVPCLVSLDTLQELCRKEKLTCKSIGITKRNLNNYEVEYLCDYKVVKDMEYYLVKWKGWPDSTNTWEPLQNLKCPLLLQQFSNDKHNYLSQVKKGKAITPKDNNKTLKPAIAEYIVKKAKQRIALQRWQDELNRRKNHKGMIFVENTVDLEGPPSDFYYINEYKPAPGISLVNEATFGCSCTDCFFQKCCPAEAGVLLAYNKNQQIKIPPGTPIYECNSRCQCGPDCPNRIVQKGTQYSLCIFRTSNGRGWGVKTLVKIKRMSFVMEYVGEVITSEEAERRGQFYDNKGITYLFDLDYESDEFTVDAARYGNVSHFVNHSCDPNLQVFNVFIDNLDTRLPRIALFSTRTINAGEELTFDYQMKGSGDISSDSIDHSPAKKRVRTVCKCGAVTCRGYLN
Method: Assay buffer (4 μL) was added into all the wells, including test compound and control wells (except for Sinefungin control wells), using the Multidrop Combi. The plate was centrifuged at 1000 rpm for 1 min. […] SUV39H2 (8 μL, final conc: optimized for each lot of the enzyme based on specific activity) was added by using the Multidrop Combi. The assay plate was centrifuged at 1000 rpm for 1 min. Assay buffer was used as background control, and incubated at room temperature for 3 hours. The reaction was stopped with 20 μL of 2.5 mg/mL Streptavidin SPA beads (final conc. 50 μg/well) in buffer using the Multidrop Combi and centrifuged for 1 min. The plate was loaded into the Trilux-Microbeta counter and a delayed read of 10 hours was made. The radioactive signal was measured at 1 min/well. Sinefungin and the internal standard compound were used as tool compounds to determine assay performance.
• The following calculations were made using the obtained CPM raw data: Software used: XLFit from IDBS.
For each test plate the following results were calculated: • Average, Standard Deviation, and % CV of Background Controls • Average, Standard Deviation, and % CV of Positive Controls • Z′ value of the plate • IC50 values of standard and test compounds (in nM) • R^2 value of fitted concentration response curve • Hill slope coefficient of fitted concentration response curve • Signal to Noise Ratio

[3] = A549 cells, 72 hours exposure, Cell Counting Kit-8

Row | Compound | IC50 ([1]; A549, 72 h) | IC50 [2] | IC50 [1, 3]
1 | COc1cc(OC)c(-c2cn3cc(-c4ccc(C#N)cc4)c(N4CC[C@H](N)C4)cc3n2)cc1Cl [Example 445, (S)-4-(7-(3-aminopyrrolidin-1-yl)-2-(5-chloro-2,4-dimethoxyphenyl)imidazo[1,2-a]pyridin-6-yl)benzonitrile dihydrochloride] | 940 nM | 85.9 nM | 
2 | COc1cc(OC)c(-c2cn3ccc(N[C@H]4C[C@H]5CC[C@@H](C4)N5C(=O)OC(C)(C)C)cc3n2)cc1Cl [Example 444, (1R,3r,5S)-tert-butyl 3-((2-(5-chloro-2,4-dimethoxyphenyl)imidazo[1,2-a]pyridin-7-yl)amino)-8-azabicyclo[3.2.1]octane-8-carboxylate] |  | 78 nM | 780 nM
3 | COc1cc(OC)c(-c2cn3ccc(N4CCN(S(C)(=O)=O)C(C)C4)cc3n2)cc1Cl (stereo not shown) [Example 312, 2-(5-chloro-2,4-dimethoxyphenyl)-7-(3-methyl-4-(methylsulfonyl)piperazin-1-yl)imidazo[1,2-a]pyridine] |  | 3.81 nM | 2500 nM
4 | COc1cc(OC)c(-c2cn3ccc(N4CCN(C(=O)c5ccccc5O)CC4)cc3n2)cc1Cl [Example 314, (4-(2-(5-chloro-2,4-dimethoxyphenyl)imidazo[1,2-a]pyridin-7-yl)piperazin-1-yl)(2-hydroxyphenyl)methanone] |  | 7.29 nM | 1700 nM
5 | COc1cc(OC)c(-c2cn3ccc(N4CCN(c5nc(N)nc(N6CCOCC6)n5)CC4)cc3n2)cc1Cl [Example 379, 4-(4-(2-(5-chloro-2,4-dimethoxyphenyl)imidazo[1,2-a]pyridin-7-yl)piperazin-1-yl)-6-morpholino-1,3,5-triazin-2-amine] |  | 26.9 nM | 420 nM
6 | COc1cc(OC)c(-c2cn3ccc(NC4CCC(NCc5ccc(F)cc5)CC4)cc3n2)cc1Cl (stereo not shown) [Example 320, (1r,4r)-N^1-(2-(5-chloro-2,4-dimethoxyphenyl)imidazo[1,2-a]pyridin-7-yl)-N^4-(4-fluorobenzyl)cyclohexane-1,4-diamine] |  | 95 nM | 430 nM
7 | COc1cc(OC)c(-c2cn3ccc(N4CC[C@H](NC(C)C5CCN(C(=O)OC(C)(C)C)CC5)C4)cc3n2)cc1Cl (stereo partly drawn) [Example 425, tert-butyl 4-(1-(((S)-1-(2-(5-chloro-2,4-dimethoxyphenyl)imidazo[1,2-a]pyridine-7-yl)pyrrolidin-3-yl)amino)ethyl)piperidine-1-carboxylate] |  | 57.9 nM | 890 nM
8 | COc1cc(OC)c(-c2cn3ccc(N4CCN(c5ncnc(N(C)C)n5)CC4)cc3n2)cc1Cl [Example 450, 4-(4-(2-(5-chloro-2,4-dimethoxyphenyl)imidazo[1,2-a]pyridin-7-yl)piperazin-1-yl)-N,N-dimethyl-1,3,5-triazin-2-amine] |  | 33.6 nM | 730 nM
9 | COc1cc(OC)c(-c2cn3ccc(NC4CCN(Cc5csc([N+](=O)[O-])c5)CC4)cc3n2)cc1Cl [Example 324, 2-(5-chloro-2,4-dimethoxyphenyl)-N-(1-((5-nitrothiophen-3-yl)methyl)piperidin-4-yl)imidazo[1,2-a]pyridin-7-amine] |  | 33.9 nM | 590 nM
10 | COc1cc(OC)c(-c2cn3ccc(N4CC[C@H](NCC5CCN(C(=O)OC(C)(C)C)CC5)C4)cc3n2)cc1Cl [Example 400, (S)-tert-butyl 4-(((1-(2-(5-chloro-2,4-dimethoxyphenyl)imidazo[1,2-a]pyridine-7-yl)pyrrolidin-3-yl)amino)methyl)piperidine-1-carboxylate] |  | 7.15 nM | 930 nM
11 | COc1cc(OC)c(-c2cn3ccc(N4CCN(c5ncnc(N6CCOCC6)n5)CC4)cc3n2)cc1Cl [Example 449, 4-(4-(4-(2-(5-chloro-2,4-dimethoxyphenyl)imidazo[1,2-a]pyridin-7-yl)piperazin-1-yl)-1,3,5-triazin-2-yl)morpholine] | 870 nM | 17.5 nM | 
